Read-outs that look alike come from different tables or passages of the source.
Columns and labels:
[1] = tested on: motor function deficits induced by 6-OHDA in Parkinson's disease (PD) model; test: Rotarod test in rats with 6-OHDA lesion, Parkinson's disease (PD) model; assay type: in vivo, Sprague-Dawley rats; settings: Example 31; L-DOPA orally, pro-drug transdermally
Protocol: Test subjects (Sprague-Dawley rats) were prepared, grouped, and tested following the protocol below: • 1. 200 Sprague-Dawley rats (male, 200-230 g) underwent brain stereotaxic surgery after 1 week acclamation in animal facility; • 2. After anesthesia, a bur hole (1 mm in diameter) was made on skull on the left side with a motor drill based on the coordinates: AP +0.5 mm, ML −2.8 mm, DV 6.0 mm relative to Bregma; • 3. 6-OHDA (20 μg at 5 mg/mL) or sterile saline was injected into the left striatum with a microsyringe fitted with a 26-gauge steel cannula. The chemical caused the retrograde neurodegeneration in the distal substantia nigra and impairs dopamine transmission in the nigro-striatal pathway, which eventually led to functional disturbance of motor activities; • 4. Apomorphine and classic rotation test was carried out to screen animals at the end of week 3 post 6-OHDA treatment. Animals that matched lesion type and apomorphine-induced rotational scores were allotted to 11 groups; and • 5. Rats were divided into 11 groups (n=12), each group was applied with the drug(s) at the doses specified in Table 2:
• 6. Dose Formulations • (1) L-DOPA in water (3 mg/mL) was the positive control solution for group 1 (orally for group 1, transdermally for groups 2-11). The volume of administration was 2 mL/kg. Vehicle solution (negative control solution for group 2) was 30% ethanol (v/v). The volume of administration was 1286 μL/kg. Other test solutions (groups 3-11) were freshly prepared every day. • (2) Preparation method of test solutions for groups 3-5: 50.33 mg of Drug A was dissolved in 10 mL of 30% ethanol(v/v). This solution was the stock solution[(2)a]. • a. The test solution for group 5 (high dose group) of Drug A: The stock solution [(2)a] was the test solution for Group 5. The volume of administration was 1286 μL/kg. • b. The test solution for group 4 (moderate dose group) of Drug A: 3.00 mL of the stock solution [(2)a] was diluted to final volume 9.00 mL with 30% ethanol(v/v). This solution was the test solution for Group 4. The volume of administration was 1286 μL/kg. • c. […]

[2] = human, pH 7.4
[3] = tested on: motor function deficits induced by 6-OHDA in Parkinson's disease (PD) model; test: Rotarod test in rats with 6-OHDA lesion, Parkinson's disease (PD) model; assay type: in vivo, Sprague-Dawley rats; settings: for Side effects (dyskinesia at peak dose, end-of-dose deterioration of function etc.): L-DOPA orally

The cumulative amount of test compounds ([2]; 1 h): 0.001 mg
The cumulative amount of test compounds ([2]; 2 h): 0.001 mg
The cumulative amount of test compounds ([2]; 4 h): 0.002 mg
The cumulative amount of test compounds ([2]; 8 h): 0.003 mg
Structure (SMILES): NC(Cc1ccc(O)c(O)c1)C(=O)O (stereo not drawn) [Compound-31, 2-amino-3-(3,4-dihydroxyphenyl)propanoic acid]
Side effects (dyskinesia at peak dose, end-of-dose deterioration of function etc.) [1]: caused nausea, vomiting, gastrointestinal bleeding, dyskinesia at peak dose, and end-of-dose deterioration of function
Efficacy in Rotarod test comparing to Vehicle group ([3]; Example 31, 6 mg/kg orally (Group 1), three-week treatment): did not exhibit efficacy
Efficacy in Rotarod test comparing to the negative control group ([3]; Example 33, 6 mg/kg orally, four-week treatment): did not exhibit efficacy
Side effects (dyskinesia at peak dose, end-of-dose deterioration of function etc.) ([3]; Example 33, pro-drug transdermally): caused nausea, vomiting, gastrointestinal bleeding, dyskinesia at peak dose, and end-of-dose deterioration of function
Efficacy in Rotarod test comparing to Vehicle group ([3]; Example 35, 6 mg/kg orally, four-week treatment): did not exhibit efficacy
Side effects (dyskinesia at peak dose, end-of-dose deterioration of function etc.) ([3]; Example 35, pro-drug of dopamine transdermally): caused nausea, vomiting, gastrointestinal bleeding, dyskinesia at peak dose, and end-of-dose deterioration of function
Efficacy in Rotarod test comparing to Vehicle group ([3]; Example 36, 6 mg/kg orally, four-week treatment): did not exhibit efficacy
Side effects (dyskinesia at peak dose, end-of-dose deterioration of function etc.) ([3]; Example 36, pro-drug transdermally): caused nausea, vomiting, gastrointestinal bleeding, dyskinesia at peak dose, and end-of-dose deterioration of function

Source: patent US11685739B2, “High penetration drugs and their compositions thereof for treatment of Parkinson diseases” (TECHFIELDS PHARMA CO., LTD, priority 2013, dated 2023)
